What was measured:
Format in all cases: in vivo
[1] = tested on: palmer (palmer amaranth, palmer pigweed, Amaranthus palmeri); assay: Test A preemergence soil spray, visual injury rating 0-100; conditions: 10 days
Summary of the method: (§1)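 Visual injury ratings (0, no effect; 100, complete control) were assigned relative to untreated plants 10 days after treatment. Test chemicals, formulated with a surfactant-containing non-phytotoxic solvent, were applied in loam-sand soil either as a directed soil spray before emergence or to emerged plants, and plants were kept in a greenhouse.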

[2] = tested on: wheat (Triticum aestivum); assay: as above; conditions: 10 days
Summary of the method: as §1

[3] = tested on: ragweed (common ragweed, Ambrosia artemisiifolia); assay: as above; conditions: 10 days
Summary of the method: as §1

[4] = tested on: ryegrass, Italian (italian ryegrass, Lolium multiflorum); assay: as above; conditions: 10 days
Summary of the method: as §1

[5] = tested on: barnyardgrass (Echinochloa crus-galli); assay: as above; conditions: 10 days
Summary of the method: as §1

corn (Zea mays) [6] = assay: as above; conditions: 10 days
Summary of the method: as §1

[7] = tested on: blackgrass (Alopecurus myosuroides); assay: as above; conditions: 10 days
Summary of the method: as §1

soybean (Glycine max) [8] = assay: as above; conditions: 10 days
Summary of the method: as §1

kochia (Bassia scoparia) [9] = assay: as above; conditions: 10 days
Summary of the method: as §1

[10] = tested on: green foxtail (Setaria viridis); assay: as above; conditions: 10 days
Summary of the method: as §1

[11] = tested on: oat, wild (wild oat, Avena fatua); assay: as above; conditions: 10 days
Summary of the method: as §1

[12] = tested on: ducksalad (Heteranthera limosa); assay: Test B flooded paddy test, visual plant response rating 0-100; conditions: 250 g ai/ha, Flood, applied to paddy water, evaluated after 13 days
Summary of the method: (§2)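 Plants were grown to the 2-leaf stage, then pots were flooded to 3 cm above the soil and compound was applied directly to the paddy water, with that depth kept throughout.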

rice (Oryza sativa) = assay: as above; conditions: 250 g ai/ha, Flood, applied to paddy water, evaluated after 13 days
Summary of the method: as §2

[13] = tested on: sedge, umbrella (small-flower umbrella sedge, Cyperus difformis); assay: as above; conditions: 250 g ai/ha, Flood, applied to paddy water, evaluated after 13 days
Summary of the method: as §2

[14] = tested on: barnyardgrass (Echinochloa crusgalli); assay: as above; conditions: 250 g ai/ha, Flood, applied to paddy water, evaluated after 13 days
Summary of the method: as §2

[15] = tested on: palmer (palmer amaranth, palmer pigweed, Amaranthus palmeri); assay: Test A postemergence application, visual injury rating 0-100
Summary of the method: as §1

[16] = tested on: horseweed (Erigeron canadensis); assay: as above
Summary of the method: as §1

[17] = tested on: wheat (Triticum aestivum); assay: as above
Summary of the method: as §1

[18] = tested on: ragweed (common ragweed, Ambrosia artemisiifolia); assay: as above
Summary of the method: as §1

[19] = tested on: ryegrass, Italian (italian ryegrass, Lolium multiflorum); assay: as above
Summary of the method: as §1

[20] = tested on: barnyardgrass (Echinochloa crus-galli); assay: as above
Summary of the method: as §1

corn (Zea mays) [21] = assay: as above
Summary of the method: as §1

[22] = tested on: blackgrass (Alopecurus myosuroides); assay: as above
Summary of the method: as §1

soybean (Glycine max) [23] = assay: as above
Summary of the method: as §1

kochia (Bassia scoparia) [24] = assay: as above
Summary of the method: as §1

[25] = tested on: green foxtail (Setaria viridis); assay: as above
Summary of the method: as §1

[26] = tested on: oat, wild (wild oat, Avena fatua); assay: as above
Summary of the method: as §1

[27] = tested on: galium (catchweed bedstraw, Galium aparine); assay: as above
Summary of the method: as §1

[28] = 62 g ai/ha, 0 = no effect, 100 = complete control
[29] = 62 g ai/ha, postemergence, 10 days, 0 = no effect, 100 = complete control
[30] = Postemergence, 16 g ai/ha, greenhouse 10 days, 0 no effect, 100 complete control

## COC(=O)C1C=CC(NC(=O)C2(C)CN(c3cc(F)cc(F)c3)C(=O)O2)C1 (mixture of isomers) [Compound 161]
[1]; 16 g ai/ha, 0 to 100 scale
  Pigweed, Palmer plant response rating: 90
[1]; [28]
  Pigweed, Palmer plant response rating (0-100): 100
[2]; 16 g ai/ha, 0 to 100 scale
  Wheat plant response rating: 80
[2]; [28]
  Wheat plant response rating (0-100): 90
[3]; 16 g ai/ha, 0 to 100 scale
  Ragweed plant response rating: 10
[3]; [28]
  Ragweed plant response rating (0-100): 50
[4]; 16 g ai/ha, 0 to 100 scale
  Ryegrass, Italian plant response rating: 90
[4]; [28]
  Ryegrass, Italian plant response rating (0-100): 90
[5]; 16 g ai/ha, 0 to 100 scale
  Barnyardgrass plant response rating: 80
[5]; [28]
  Barnyardgrass plant response rating (0-100): 100
Corn (Zea mays) [6]; 16 g ai/ha, 0 to 100 scale
  Corn plant response rating: 30
Corn (Zea mays) [6]; [28]
  Corn plant response rating (0-100): 80
[7]; 16 g ai/ha, 0 to 100 scale
  Blackgrass plant response rating: 70
[7]; [28]
  Blackgrass plant response rating (0-100): 90
Soybean (Glycine max) [8]; 16 g ai/ha, 0 to 100 scale
  Soybean plant response rating: 0
Soybean (Glycine max) [8]; [28]
  Soybean plant response rating (0-100): 50
Kochia (Bassia scoparia) [9]; 16 g ai/ha, 0 to 100 scale
  Kochia plant response rating: 0
Kochia (Bassia scoparia) [9]; [28]
  Kochia plant response rating (0-100): 50
[10]; 16 g ai/ha, 0 to 100 scale
  Foxtail, Green plant response rating: 30
[10]; [28]
  Foxtail, Green plant response rating (0-100): 100
[11]; 16 g ai/ha, 0 to 100 scale
  Oat, Wild plant response rating: 30
[11]; [28]
  Oat, Wild plant response rating (0-100): 90
[12]
  Plant response rating, Ducksalad (0 to 100 scale, 0 is no effect and 100 is complete control): 80
Rice (Oryza sativa)
  Plant response rating, Rice (0 to 100 scale, 0 is no effect and 100 is complete control): 85
[13]
  Plant response rating, Sedge, Umbrella (0 to 100 scale, 0 is no effect and 100 is complete control): 95
[14]
  Plant response rating, Barnyardgrass (0 to 100 scale, 0 is no effect and 100 is complete control): 60
[15]; [29]
  Pigweed, Palmer plant response rating (0-100): 70
[15]; [30]
  Pigweed, Palmer plant response rating (0 to 100 scale): 40
[16]; [29]
  Horseweed plant response rating (0-100): 70
[16]; [30]
  Horseweed plant response rating (0 to 100 scale): 60
[17]; [29]
  Wheat plant response rating (0-100): 90
[17]; [30]
  Wheat plant response rating (0 to 100 scale): 90
[18]; [29]
  Ragweed plant response rating (0-100): 70
[18]; [30]
  Ragweed plant response rating (0 to 100 scale): 50
[19]; [29]
  Ryegrass, Italian plant response rating (0-100): 80
[19]; [30]
  Ryegrass, Italian plant response rating (0 to 100 scale): 70
[20]; [29]
  Barnyardgrass plant response rating (0-100): 100
[20]; [30]
  Barnyardgrass plant response rating (0 to 100 scale): 80
Corn (Zea mays) [21]; [29]
  Corn plant response rating (0-100): 100
Corn (Zea mays) [21]; [30]
  Corn plant response rating (0 to 100 scale): 100
[22]; [29]
  Blackgrass plant response rating (0-100): 90
[22]; [30]
  Blackgrass plant response rating (0 to 100 scale): 90
Soybean (Glycine max) [23]; [29]
  Soybean plant response rating (0-100): 70
Soybean (Glycine max) [23]; [30]
  Soybean plant response rating (0 to 100 scale): 60
Kochia (Bassia scoparia) [24]; [29]
  Kochia plant response rating (0-100): 30
Kochia (Bassia scoparia) [24]; [30]
  Kochia plant response rating (0 to 100 scale): 0
[25]; [29]
  Foxtail, Green plant response rating (0-100): 90
[25]; [30]
  Foxtail, Green plant response rating (0 to 100 scale): 60
[26]; [29]
  Oat, Wild plant response rating (0-100): 90
[26]; [30]
  Oat, Wild plant response rating (0 to 100 scale): 90
[27]; [29]
  Galium plant response rating (0-100): 90
[27]; [30]
  Galium plant response rating (0 to 100 scale): 80

Source: patent US20260285850A1, “SUBSTITUTED OXAZOLIDINONES AND IMIDAZOLINONES AS HERBICIDES” (FMC CORPORATION, priority 2023, published 2026)
